Experimental data: paper PMC6345968, “Structural basis for species-selective targeting of Hsp90 in a pathogenic fungus” (Nature Communications, 2019)
Values joined by “and” are separate entries in the source; they are usually repeats but may differ in a detail not shown here. Equal values may be shown once. Read-outs that look alike come from different tables or passages of the source.

What was measured:
C. albicans Hsp90 NBD = molecular target: T1, C. albicans Hsp90 NBD (Candida albicans, UniProt P46598); assay: biochemical; format: binding; details: 0.1 nM Cy3-GdA, C. albicans NBD-Hsp90 (10 nM)
T1 construct: C. albicans Hsp90 (E7-K218); made in house; host or cells: E. coli Rosetta2

[1] = molecular target: T2, Hsp90 in C. albicans (SC5314) lysate (Candida albicans, UniProt P46598); assay: biochemical; format: binding; details: for FP signal: raw
T2 construct: endogenous in cells; host or cells: C. albicans SC5314 whole-cell lysate

Hsp90 in 3T3 lysate = assay: FP competition in whole-cell lysate; format: binding, mouse; details: 3T3 lysate
Method: After vortexing, cell lysate was frozen at −80 °C for 2 h, followed by thawing on ice. The vortex-freeze-thaw step was repeated. […] Aliquots were thawed immediately prior to use.

Hsp90 in HEPG2 lysate = details: for FP signal / FP signal (raw): HepG2 lysate; for FP signal: raw
human Hsp90 NBD = human Hsp90 NBD (Homo sapiens, UniProt P08238); details: 0.1 nM Cy3-GdA, Human NBD-Hsp90 (10 nM); for FP signal (raw) / FP signal as fraction of no-compound (0 uM) control: Experiments 1-3
human Grp94 NBD = human Grp94 NBD (Homo sapiens, UniProt P14625); details: 0.1 nM Cy3-GdA, Experiments 1-3
[2] = read-out: FP signal, fraction of control
[3] = Experiments 1-3, one value per experiment

T1 sequence (P46598 7-218): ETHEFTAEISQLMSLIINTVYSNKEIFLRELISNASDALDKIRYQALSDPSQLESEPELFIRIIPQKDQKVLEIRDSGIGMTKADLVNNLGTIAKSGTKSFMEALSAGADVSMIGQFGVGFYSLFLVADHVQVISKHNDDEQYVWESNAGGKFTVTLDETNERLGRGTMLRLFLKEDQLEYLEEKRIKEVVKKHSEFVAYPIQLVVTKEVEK
Sequence of human Grp94 NBD (P14625 63-337): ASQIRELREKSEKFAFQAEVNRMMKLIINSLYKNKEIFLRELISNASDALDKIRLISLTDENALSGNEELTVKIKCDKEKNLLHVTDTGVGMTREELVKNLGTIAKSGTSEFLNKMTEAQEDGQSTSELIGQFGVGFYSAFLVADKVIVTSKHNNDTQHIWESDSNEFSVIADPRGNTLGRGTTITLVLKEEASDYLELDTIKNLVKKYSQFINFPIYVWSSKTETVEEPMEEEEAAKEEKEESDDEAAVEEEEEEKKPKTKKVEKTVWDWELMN
T2 sequence (P46598 whole entry): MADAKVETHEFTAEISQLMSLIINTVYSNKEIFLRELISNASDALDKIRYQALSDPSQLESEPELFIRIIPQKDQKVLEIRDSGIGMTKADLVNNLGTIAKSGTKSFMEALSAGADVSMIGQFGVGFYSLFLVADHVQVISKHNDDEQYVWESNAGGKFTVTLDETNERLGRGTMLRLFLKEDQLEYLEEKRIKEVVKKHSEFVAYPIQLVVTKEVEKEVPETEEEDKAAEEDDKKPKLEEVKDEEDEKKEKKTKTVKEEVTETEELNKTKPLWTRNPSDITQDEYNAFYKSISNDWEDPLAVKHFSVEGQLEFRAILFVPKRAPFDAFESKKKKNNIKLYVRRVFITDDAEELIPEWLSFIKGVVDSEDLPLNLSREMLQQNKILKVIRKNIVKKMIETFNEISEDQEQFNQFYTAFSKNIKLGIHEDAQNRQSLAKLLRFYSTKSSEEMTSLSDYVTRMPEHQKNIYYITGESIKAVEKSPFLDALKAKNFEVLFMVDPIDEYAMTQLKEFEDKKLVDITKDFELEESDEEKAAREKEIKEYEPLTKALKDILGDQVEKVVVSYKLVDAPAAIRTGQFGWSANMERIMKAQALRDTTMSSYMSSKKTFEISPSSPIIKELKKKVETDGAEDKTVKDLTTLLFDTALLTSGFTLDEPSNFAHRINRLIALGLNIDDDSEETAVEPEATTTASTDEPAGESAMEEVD
Sequence of human Hsp90 NBD (P08238 1-223): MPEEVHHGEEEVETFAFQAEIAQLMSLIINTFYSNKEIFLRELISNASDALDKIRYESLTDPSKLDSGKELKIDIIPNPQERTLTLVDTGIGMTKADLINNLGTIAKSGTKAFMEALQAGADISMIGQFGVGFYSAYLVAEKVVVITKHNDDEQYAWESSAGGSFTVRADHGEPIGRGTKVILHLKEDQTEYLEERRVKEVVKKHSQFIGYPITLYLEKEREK

## COC1=C2C[C@@H](C)C[C@H](OC)[C@H](O)[C@@H](C)/C=C(\C)[C@H](OC(N)=O)[C@@H](OC)/C=C\C=C(/C)C(=O)NC(=CC1=O)C2=O [geldanamycin, reference compound]
C. albicans Hsp90 NBD; Cmpd 0.002 uM, Experiments 1-3
  FP signal (raw): 98
C. albicans Hsp90 NBD; Cmpd 0.002 uM, Experiments 1-3, read-out: FP signal as fraction of no-compound (0 uM) control
  remaining activity at 0.002 µM: 98%
C. albicans Hsp90 NBD; Cmpd 0.004 uM, Experiments 1-3
  FP signal (raw): 97
C. albicans Hsp90 NBD; Cmpd 0.004 uM, Experiments 1-3, read-out: FP signal as fraction of no-compound (0 uM) control
  remaining activity at 0.004 µM: 95.5%
C. albicans Hsp90 NBD; Cmpd 0.008 uM, Experiments 1-3
  FP signal (raw): 92
C. albicans Hsp90 NBD; Cmpd 0.008 uM, Experiments 1-3, read-out: FP signal as fraction of no-compound (0 uM) control
  remaining activity at 0.008 µM: 94.4%
C. albicans Hsp90 NBD; Cmpd 0.016 uM, Experiments 1-3, read-out: FP signal as fraction of no-compound (0 uM) control
  remaining activity at 0.016 µM: 87%
C. albicans Hsp90 NBD; Cmpd 0.25 uM, Experiments 1-3, read-out: FP signal as fraction of no-compound (0 uM) control
  remaining activity at 0.25 µM: 18.6%
C. albicans Hsp90 NBD; Cmpd 0.5 uM, Experiments 1-3
  FP signal (raw): 18 and 19 and 10
C. albicans Hsp90 NBD; Cmpd 0.5 uM, Experiments 1-3, read-out: FP signal as fraction of no-compound (0 uM) control
  remaining activity at 0.5 µM: 10.2%
C. albicans Hsp90 NBD; Cmpd […], Experiments 1-3, read-out: FP signal as fraction of no-compound (0 uM) control
  remaining activity at […]: 71.3%
[1]; EC50 relative to GdA, SC5314 lysate
  Rel. to GdA: 1
[1]; SC5314 lysate, 0.457 nM compound
  FP signal: 205
[1]; SC5314 lysate, 0.457 nM, listed as GdA
  FP signal (raw): 205
[1]; SC5314 lysate, 1.372 nM compound
  FP signal: 198
[1]; SC5314 lysate, 1.372 nM, listed as GdA
  FP signal (raw): 198 and 206
[1]; SC5314 lysate, 0.002 uM, read-out: FP signal, fraction of control
  remaining activity at 0.002 µM: 96.8%
[1]; SC5314 lysate, 0.004 uM, read-out: FP signal, fraction of control
  remaining activity at 0.004 µM: 95.7%
[1]; SC5314 lysate, 0.031 uM, read-out: FP signal, fraction of control
  remaining activity at […]: 59.4%
[1]; SC5314 lysate, 37.037 nM compound
  FP signal: 78
[1]; SC5314 lysate, 37.037 nM, listed as GdA
  FP signal (raw): 78 and 81
[1]; SC5314 lysate, 0.063 uM
  FP signal (raw): 48
[1]; SC5314 lysate, 0.063 uM, read-out: FP signal, fraction of control
  remaining activity at 0.063 µM: 25.7%
[1]; SC5314 lysate, 111.111 nM compound
  FP signal: 47
[1]; SC5314 lysate, 111.111 nM, listed as GdA
  FP signal (raw): 47 and 43
[1]; SC5314 lysate, 0.25 uM
  FP signal (raw): 2
[1]; SC5314 lysate, 0.25 uM, read-out: FP signal, fraction of control
  remaining activity at 0.25 µM: 1.07%
[1]; SC5314 lysate, 333.333 nM
  FP signal (raw): 33
[1]; SC5314 lysate, 333.333 nM compound
  FP signal: 33
[1]; SC5314 lysate, 0.5 uM
  FP signal (raw): -7
[1]; SC5314 lysate, 0.5 uM, read-out: FP signal, fraction of control
  remaining activity at 0.5 µM: -3.74%
[1]; SC5314 lysate, 1 uM
  FP signal (raw): -4
[1]; SC5314 lysate, 1000 nM
  FP signal (raw): 30
[1]; SC5314 lysate, 1000 nM compound
  FP signal: 30
[1]; SC5314 lysate, 2 uM
  FP signal (raw): -6
[1]; SC5314 lysate, 2 uM, read-out: FP signal, fraction of control
  remaining activity at 2 µM: -3.21%
[1]; SC5314 lysate, 3000 nM compound
  FP signal: 30
[1]; SC5314 lysate, 3000 nM, listed as GdA
  FP signal (raw): 30 and 28
[1]; [2]
  remaining activity at 0.008 µM: 91.4%
  remaining activity at 0.016 µM: 79.1%
  remaining activity at 1 µM: -2.14%
Hsp90 in 3T3 lysate; 0.002 uM
  FP signal (raw): 254
Hsp90 in 3T3 lysate; 0.004 uM
  FP signal (raw): 250
Hsp90 in 3T3 lysate; 0.008 uM
  FP signal (raw): 250
Hsp90 in 3T3 lysate; 0.016 uM
  FP signal (raw): 252
Hsp90 in 3T3 lysate; 0.063 uM
  FP signal (raw): 213
Hsp90 in 3T3 lysate; 0.25 uM
  FP signal (raw): 76
Hsp90 in 3T3 lysate; 0.5 uM
  FP signal (raw): 34
Hsp90 in 3T3 lysate; 1 uM
  FP signal (raw): 23
Hsp90 in HEPG2 lysate; EC50 relative to GdA, HEPG2 lysate
  Rel. to GdA: 1
Hsp90 in HEPG2 lysate; 37.037 nM compound
  FP signal: 93
Hsp90 in HEPG2 lysate; 37.037 nM, listed as GdA
  FP signal (raw): 93
Hsp90 in HEPG2 lysate; 111.111 nM compound
  FP signal: 59
Hsp90 in HEPG2 lysate; 111.111 nM, listed as GdA
  FP signal (raw): 59 and 55
Hsp90 in HEPG2 lysate; 0.25 uM
  FP signal (raw): 27
Hsp90 in HEPG2 lysate; 333.333 nM compound
  FP signal: 40
Hsp90 in HEPG2 lysate; 333.333 nM, listed as GdA
  FP signal (raw): 40 and 41
Hsp90 in HEPG2 lysate; 0.5 uM
  FP signal (raw): 9
Hsp90 in HEPG2 lysate; 1 uM
  FP signal (raw): 5
Hsp90 in HEPG2 lysate; 1000 nM compound
  FP signal: 35
Hsp90 in HEPG2 lysate; 1000 nM, listed as GdA
  FP signal (raw): 35 and 32
Hsp90 in HEPG2 lysate; 2 uM
  FP signal (raw): -5
Hsp90 in HEPG2 lysate; 3000 nM compound
  FP signal: 30
Hsp90 in HEPG2 lysate; 3000 nM, listed as GdA
  FP signal (raw): 30 and 27

## COc1ccc(CON=C2C=CC=CC3OC3CC(C)OC(=O)c3c(O)cc(O)cc3C2)cc1 (mixture of isomers) [LEB075]
C. albicans Hsp90 NBD; [3]
  EC50: 82.3 nM and 83.8 nM
C. albicans Hsp90 NBD; Cmpd 0.002 uM, Experiments 1-3
  FP signal (raw): 109 and 127
  FP signal as fraction of no-compound (0 uM) control: 0.6412 and 0.7471
C. albicans Hsp90 NBD; Cmpd 0.004 uM, Experiments 1-3
  FP signal (raw): 109
  FP signal as fraction of no-compound (0 uM) control: 0.6412 and 0.6941
C. albicans Hsp90 NBD; Cmpd 0.008 uM, Experiments 1-3
  FP signal (raw): 101 and 104
  FP signal as fraction of no-compound (0 uM) control: 0.5941 and 0.6118
C. albicans Hsp90 NBD; Cmpd 0.016 uM, Experiments 1-3
  FP signal (raw): 93 and 101
  FP signal as fraction of no-compound (0 uM) control: 0.5471 and 0.5941
C. albicans Hsp90 NBD; Cmpd 0.063 uM, Experiments 1-3
  FP signal (raw): 72 and 79
  FP signal as fraction of no-compound (0 uM) control: 0.4235 and 0.4647
C. albicans Hsp90 NBD; Cmpd 0.25 uM, Experiments 1-3
  FP signal (raw): 38 and 42
  FP signal as fraction of no-compound (0 uM) control: 0.2235 and 0.2471
C. albicans Hsp90 NBD; Cmpd 0.5 uM, Experiments 1-3
  FP signal (raw): 24 and 26
  FP signal as fraction of no-compound (0 uM) control: 0.1412 and 0.1529
C. albicans Hsp90 NBD; Cmpd 1 uM, Experiments 1-3
  FP signal (raw): 15 and 17
  FP signal as fraction of no-compound (0 uM) control: 0.1 and 0.08824
C. albicans Hsp90 NBD; Cmpd 2 uM, Experiments 1-3
  FP signal (raw): 20
  FP signal as fraction of no-compound (0 uM) control: 0.1176
Human Hsp90 NBD; [3]
  EC50: 1650 nM and 1630 nM
Human Hsp90 NBD; Cmpd 0.002 uM
  FP signal (raw): 147 and 148
  FP signal as fraction of no-compound (0 uM) control: 0.98 and 0.9737
Human Hsp90 NBD; Cmpd 0.004 uM
  FP signal (raw): 148 and 151
  FP signal as fraction of no-compound (0 uM) control: 0.9867 and 0.9934
Human Hsp90 NBD; Cmpd 0.008 uM
  FP signal (raw): 149
  FP signal as fraction of no-compound (0 uM) control: 0.9933 and 0.9803
Human Hsp90 NBD; Cmpd 0.016 uM
  FP signal (raw): 150 and 149
  FP signal as fraction of no-compound (0 uM) control: 1 and 0.9803
Human Hsp90 NBD; Cmpd 0.063 uM
  FP signal (raw): 147 and 150
  FP signal as fraction of no-compound (0 uM) control: 0.98 and 0.9868
Human Hsp90 NBD; Cmpd 0.25 uM
  FP signal (raw): 141 and 143
  FP signal as fraction of no-compound (0 uM) control: 0.94 and 0.9408
Human Hsp90 NBD; Cmpd 0.5 uM
  FP signal (raw): 130
  FP signal as fraction of no-compound (0 uM) control: 0.8667 and 0.8553
Human Hsp90 NBD; Cmpd 1 uM
  FP signal (raw): 112 and 106
  FP signal as fraction of no-compound (0 uM) control: 0.7067 and 0.7368
Human Hsp90 NBD; Cmpd 2 uM
  FP signal (raw): 58 and 61
  FP signal as fraction of no-compound (0 uM) control: 0.4067 and 0.3816
Human Grp94 NBD; Cmpd 0.002 uM
  FP signal (raw): 157
Human Grp94 NBD; Cmpd 0.004 uM
  FP signal (raw): 159
Human Grp94 NBD; Cmpd 0.008 uM
  FP signal (raw): 150
Human Grp94 NBD; Cmpd 0.016 uM
  FP signal (raw): 147
Human Grp94 NBD; Cmpd 0.063 uM
  FP signal (raw): 136
Human Grp94 NBD; Cmpd 0.25 uM
  FP signal (raw): 109
